Reference: BigSolDB 2.1

O=C(O)c1ccccc1C(=O)O
Settings | solubility (mole fraction)
in DMAc, 295.05 K | 0.163
in DMAc, 296.15 K | 0.168
in DMAc, 298.35 K | 0.18
in DMAc, 301.15 K | 0.193
in DMAc, 302.95 K | 0.201
in DMAc, 305.05 K | 0.211
in DMAc, 306.35 K | 0.22
in DMAc, 308.15 K | 0.229
in DMAc, 309.25 K | 0.238
in DMAc, 310.65 K | 0.249
in DMAc, 312.15 K | 0.258
in DMAc, 313.15 K | 0.268
in DMAc, 314.35 K | 0.276
in DMAc, 316.05 K | 0.286
in DMAc, 316.65 K | 0.295
in DMAc, 318.15 K | 0.305
in DMAc, 319.15 K | 0.314
in DMAc, 321.15 K | 0.323
in DMAc, 323.15 K | 0.334
in DMAc, 325.05 K | 0.343
in DMAc, 326.85 K | 0.353
in DMAc, 328.15 K | 0.362
in DMAc, 329.35 K | 0.373
in DMAc, 330.35 K | 0.381
in DMAc, 331.25 K | 0.389
in DMAc, 331.95 K | 0.396
in DMAc, 333.15 K | 0.405
in DMAc, 333.95 K | 0.415
in DMAc, 334.95 K | 0.427
in DMF, 304.15 K | 0.399
in DMF, 309.15 K | 0.42
in DMF, 311.05 K | 0.426
in DMF, 314.65 K | 0.435
in DMF, 316.75 K | 0.441
in DMF, 319.15 K | 0.446
in DMF, 323.35 K | 0.464
in DMF, 326.15 K | 0.476
in DMF, 328.65 K | 0.481
in DMF, 330.75 K | 0.491
in DMF, 332.45 K | 0.499
in DMF, 335.35 K | 0.509
in DMF, 338.25 K | 0.516
in DMF, 342.15 K | 0.528
in DMSO, 291.55 K | 0.333
in DMSO, 304.25 K | 0.344
in DMSO, 306.25 K | 0.348
in DMSO, 309.65 K | 0.352
in DMSO, 313.65 K | 0.354
in DMSO, 317.25 K | 0.357
in DMSO, 321.65 K | 0.362
in DMSO, 324.15 K | 0.364
in DMSO, 328.15 K | 0.368
in DMSO, 331.35 K | 0.37
in DMSO, 335.15 K | 0.373
in DMSO, 339.65 K | 0.378
in DMSO, 342.15 K | 0.38
in NMP, 293.55 K | 0.0649
in NMP, 298.35 K | 0.0801
in NMP, 303.25 K | 0.0925
in NMP, 305.15 K | 0.0988
in NMP, 307.95 K | 0.105
in NMP, 310.15 K | 0.116
in NMP, 314.05 K | 0.128
in NMP, 319.25 K | 0.147
in NMP, 321.65 K | 0.158
in NMP, 325.15 K | 0.173
in NMP, 327.25 K | 0.184
in NMP, 330.15 K | 0.202
in NMP, 333.25 K | 0.219
in acetonitrile, 296.95 K | 0.0247
in acetonitrile, 302.05 K | 0.0282
in acetonitrile, 308.25 K | 0.0323
in acetonitrile, 314.65 K | 0.0367
in acetonitrile, 318.35 K | 0.039
in acetonitrile, 321.15 K | 0.0402
in acetonitrile, 323.35 K | 0.0417
in acetonitrile, 325.15 K | 0.0429
in acetonitrile, 327.15 K | 0.0443
in acetonitrile, 329.15 K | 0.0457
in acetonitrile, 330.95 K | 0.048
in acetonitrile, 332.75 K | 0.0491
in acetonitrile, 334.35 K | 0.0504
in n-methylformamide, 294.35 K | 0.184
in n-methylformamide, 298.95 K | 0.19
in n-methylformamide, 303.35 K | 0.196
in n-methylformamide, 307.35 K | 0.201
in n-methylformamide, 311.15 K | 0.203
in n-methylformamide, 315.35 K | 0.207
in n-methylformamide, 318.95 K | 0.211
in n-methylformamide, 323.15 K | 0.216
in n-methylformamide, 327.95 K | 0.221
in n-methylformamide, 334.35 K | 0.229
in propionic acid, 298.75 K | 0.00308
in propionic acid, 306.65 K | 0.00404
in propionic acid, 312.15 K | 0.00478
in propionic acid, 316.15 K | 0.00524
in propionic acid, 320.65 K | 0.00579
in propionic acid, 323.65 K | 0.00642
in propionic acid, 327.75 K | 0.00704
in propionic acid, 331.35 K | 0.0079
in propionic acid, 335.15 K | 0.00876
in propionic acid, 338.75 K | 0.00983

Cc1ccccc1C(=O)O
Settings | solubility (mole fraction)
in DMAc, 307.65 K | 0.0781
in DMAc, 309.65 K | 0.0831
in DMAc, 311.25 K | 0.0866
in DMAc, 313.15 K | 0.0964
in DMAc, 314.35 K | 0.106
in DMAc, 317.65 K | 0.121
in DMAc, 320.25 K | 0.133
in DMAc, 321.85 K | 0.143
in DMAc, 325.25 K | 0.168
in DMAc, 327.55 K | 0.187
in DMAc, 330.25 K | 0.21
in DMAc, 332.65 K | 0.231
in DMAc, 334.35 K | 0.248
in DMAc, 336.15 K | 0.264
in DMAc, 337.35 K | 0.28
in DMAc, 338.95 K | 0.291
in DMAc, 340.35 K | 0.309
in DMAc, 341.15 K | 0.327
in DMAc, 342.05 K | 0.344
in DMAc, 343.15 K | 0.362
in DMAc, 344.35 K | 0.384
in DMF, 291.15 K | 0.329
in DMF, 295.85 K | 0.342
in DMF, 299.95 K | 0.357
in DMF, 303.75 K | 0.371
in DMF, 307.65 K | 0.39
in DMF, 311.55 K | 0.407
in DMF, 315.55 K | 0.423
in DMF, 319.45 K | 0.445
in DMF, 323.15 K | 0.461
in DMF, 327.25 K | 0.481
in DMF, 331.35 K | 0.498
in DMSO, 294.05 K | 0.497
in DMSO, 299.65 K | 0.514
in DMSO, 302.95 K | 0.523
in DMSO, 306.35 K | 0.534
in DMSO, 308.35 K | 0.537
in DMSO, 310.85 K | 0.542
in DMSO, 313.15 K | 0.548
in DMSO, 315.15 K | 0.557
in DMSO, 319.65 K | 0.57
in DMSO, 323.65 K | 0.581
in DMSO, 327.65 K | 0.591
in DMSO, 330.05 K | 0.6
in DMSO, 332.15 K | 0.608
in DMSO, 334.55 K | 0.617
in NMP, 288.95 K | 0.449
in NMP, 292.95 K | 0.455
in NMP, 296.95 K | 0.471
in NMP, 300.65 K | 0.49
in NMP, 304.65 K | 0.499
in NMP, 308.65 K | 0.51
in NMP, 312.65 K | 0.518
in NMP, 316.65 K | 0.531
in NMP, 321.35 K | 0.542
in NMP, 326.35 K | 0.559
in acetonitrile, 299.15 K | 0.314
in acetonitrile, 300.25 K | 0.316
in acetonitrile, 302.95 K | 0.323
in acetonitrile, 305.55 K | 0.329
in acetonitrile, 310.65 K | 0.34
in acetonitrile, 314.35 K | 0.346
in acetonitrile, 315.45 K | 0.35
in acetonitrile, 319.25 K | 0.36
in acetonitrile, 322.65 K | 0.369
in acetonitrile, 325.55 K | 0.378
in acetonitrile, 329.15 K | 0.386
in acetonitrile, 331.75 K | 0.393
in acetonitrile, 335.15 K | 0.401
in acetonitrile, 338.15 K | 0.409
in n-methylformamide, 294.95 K | 0.276
in n-methylformamide, 298.15 K | 0.286
in n-methylformamide, 303.65 K | 0.303
in n-methylformamide, 307.95 K | 0.32
in n-methylformamide, 312.95 K | 0.343
in n-methylformamide, 318.05 K | 0.365
in n-methylformamide, 322.35 K | 0.379
in n-methylformamide, 326.15 K | 0.392
in n-methylformamide, 330.15 K | 0.407
in n-methylformamide, 334.35 K | 0.434
in propionic acid, 296.35 K | 0.155
in propionic acid, 300.35 K | 0.179
in propionic acid, 303.65 K | 0.198
in propionic acid, 307.65 K | 0.212
in propionic acid, 311.25 K | 0.232
in propionic acid, 314.85 K | 0.253
in propionic acid, 318.35 K | 0.273
in propionic acid, 322.45 K | 0.301
in propionic acid, 326.05 K | 0.334
in propionic acid, 330.25 K | 0.363
in propionic acid, 334.15 K | 0.397
